# Laboratory results reported in ChEMBL document CHEMBL5537122, “Design, synthesis, and biological evaluation of 4-(2-fluorophenoxy)-7-methoxyquinazoline derivatives as dual EGFR/c-Met inhibitors for the treatment of NSCLC” (Eur J Med Chem, 2024).
# Active and inactive are the calls of the source. No cut-off for these calls is given here.
# Experiments:
# [1] = system: A549; experiment: Antimigratory activity against EGF-induced cell migration in serum starved human A549 cells overexpressing c-MET assessed as increase in width of artificial gap incubated for 24 hrs by wound healing assay; assay type: functional, cell-based; conditions: dose 1-2.5 µM
# [2] = system: A549; experiment: Induction in apoptosis in human A549 cells overexpressing c-MET assessed as early apoptotic cells at 1 uM incubated for 24 hrs by Annexin V-FITC/Propidium Iodide staining based flow cytometry analysis (reference value: 7.27 %); assay type: functional
# [3] = molecular target: Epidermal growth factor receptor (Homo sapiens, UniProt P00533, L858R); experiment: biochemical
# Epidermal growth factor receptor, sequence (P00533 25-1210 L858R limits assumed): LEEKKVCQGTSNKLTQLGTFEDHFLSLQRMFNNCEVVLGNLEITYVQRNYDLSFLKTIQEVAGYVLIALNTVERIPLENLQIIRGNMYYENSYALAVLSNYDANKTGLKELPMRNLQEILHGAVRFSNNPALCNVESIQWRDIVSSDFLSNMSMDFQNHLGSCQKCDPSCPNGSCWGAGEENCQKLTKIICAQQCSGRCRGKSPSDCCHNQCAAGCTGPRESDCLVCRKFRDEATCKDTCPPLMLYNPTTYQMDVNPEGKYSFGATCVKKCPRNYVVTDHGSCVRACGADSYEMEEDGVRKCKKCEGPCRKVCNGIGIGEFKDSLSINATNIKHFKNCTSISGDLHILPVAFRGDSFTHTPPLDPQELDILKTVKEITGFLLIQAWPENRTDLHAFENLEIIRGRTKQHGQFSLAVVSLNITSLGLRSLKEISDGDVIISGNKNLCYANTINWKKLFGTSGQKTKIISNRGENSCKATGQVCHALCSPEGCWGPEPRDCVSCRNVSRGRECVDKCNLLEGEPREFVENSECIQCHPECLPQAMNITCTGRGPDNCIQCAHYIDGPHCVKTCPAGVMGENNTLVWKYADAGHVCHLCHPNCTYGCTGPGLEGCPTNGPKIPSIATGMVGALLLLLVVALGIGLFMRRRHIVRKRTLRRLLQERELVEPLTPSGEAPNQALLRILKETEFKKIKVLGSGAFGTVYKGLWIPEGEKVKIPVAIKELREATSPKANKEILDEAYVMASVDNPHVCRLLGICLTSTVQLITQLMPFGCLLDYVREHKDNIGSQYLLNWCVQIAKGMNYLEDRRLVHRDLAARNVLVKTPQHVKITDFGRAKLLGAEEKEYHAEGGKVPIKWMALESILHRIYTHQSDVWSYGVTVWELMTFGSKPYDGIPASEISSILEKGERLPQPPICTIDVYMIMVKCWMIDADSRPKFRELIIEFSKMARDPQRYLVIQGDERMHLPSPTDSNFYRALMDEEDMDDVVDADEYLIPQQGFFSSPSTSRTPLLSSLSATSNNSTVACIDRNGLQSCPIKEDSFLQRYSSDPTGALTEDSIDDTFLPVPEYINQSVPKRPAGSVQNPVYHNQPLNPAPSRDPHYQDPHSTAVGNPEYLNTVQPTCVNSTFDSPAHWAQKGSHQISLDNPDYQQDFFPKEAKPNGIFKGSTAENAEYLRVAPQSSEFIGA
# [4] = system: NCI-H1975; experiment: Induction in apoptosis in human NCI-H1975 cells assessed as early apoptotic cells at 1 uM incubated for 24 hrs by Annexin V-FITC/Propidium Iodide staining based flow cytometry analysis (reference value: 2.54 %); assay type: functional
# [5] = system: L02; experiment: Induction in apoptosis in human L02 cells assessed as early apoptotic cells at 2.5 uM incubated for 24 hrs by Annexin V-FITC/Propidium Iodide staining based flow cytometry analysis (reference value: 0.26 %); assay type: toxicity, cell-based; conditions: l02, 24 h
# [6] = molecular target: Insulin receptor (Homo sapiens) (UniProt P06213); experiment: Inhibition of INSR (unknown origin) at 10 uM
# Insulin receptor (Homo sapiens), sequence (P06213 28-758 limits assumed): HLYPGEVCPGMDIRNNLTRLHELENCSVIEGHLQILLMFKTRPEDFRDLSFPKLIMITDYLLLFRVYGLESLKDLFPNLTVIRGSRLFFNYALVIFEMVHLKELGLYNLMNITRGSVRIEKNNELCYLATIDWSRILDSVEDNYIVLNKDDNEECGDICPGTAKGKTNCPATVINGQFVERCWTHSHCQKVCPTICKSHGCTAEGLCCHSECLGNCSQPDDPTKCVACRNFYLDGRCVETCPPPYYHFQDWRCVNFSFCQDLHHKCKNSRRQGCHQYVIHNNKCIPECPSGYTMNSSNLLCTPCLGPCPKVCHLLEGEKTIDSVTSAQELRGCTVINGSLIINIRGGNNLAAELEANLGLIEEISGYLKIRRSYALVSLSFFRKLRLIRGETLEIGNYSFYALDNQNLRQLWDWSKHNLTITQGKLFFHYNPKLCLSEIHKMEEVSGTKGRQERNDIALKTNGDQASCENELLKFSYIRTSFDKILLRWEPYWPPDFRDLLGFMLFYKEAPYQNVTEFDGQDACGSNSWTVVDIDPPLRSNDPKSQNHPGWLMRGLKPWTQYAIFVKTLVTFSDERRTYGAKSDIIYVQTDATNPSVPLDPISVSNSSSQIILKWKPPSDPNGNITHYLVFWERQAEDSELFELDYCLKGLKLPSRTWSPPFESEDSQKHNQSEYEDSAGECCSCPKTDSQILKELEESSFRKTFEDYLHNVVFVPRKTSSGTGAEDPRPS
# Insulin receptor (Homo sapiens), sequence (P06213 763-1382 limits assumed): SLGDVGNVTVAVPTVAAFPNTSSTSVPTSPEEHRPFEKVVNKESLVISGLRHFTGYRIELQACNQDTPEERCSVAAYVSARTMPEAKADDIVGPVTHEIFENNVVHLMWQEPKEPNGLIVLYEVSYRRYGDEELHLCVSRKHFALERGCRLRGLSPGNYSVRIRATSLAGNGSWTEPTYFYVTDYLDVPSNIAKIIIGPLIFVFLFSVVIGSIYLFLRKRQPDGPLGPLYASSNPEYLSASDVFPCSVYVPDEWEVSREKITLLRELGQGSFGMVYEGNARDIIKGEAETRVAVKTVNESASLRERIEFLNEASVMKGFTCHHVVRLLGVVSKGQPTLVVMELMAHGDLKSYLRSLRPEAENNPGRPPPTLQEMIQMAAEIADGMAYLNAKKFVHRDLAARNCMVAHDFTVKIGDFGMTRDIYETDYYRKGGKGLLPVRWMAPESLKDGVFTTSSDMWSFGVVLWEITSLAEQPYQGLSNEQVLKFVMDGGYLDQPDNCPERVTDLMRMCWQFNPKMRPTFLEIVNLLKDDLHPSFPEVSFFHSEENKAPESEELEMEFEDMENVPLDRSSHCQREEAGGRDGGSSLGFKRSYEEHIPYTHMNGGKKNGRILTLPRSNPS
# [7] = Hemolytic activity in sheep erythrocytes at 128 ug/ml incubated for 2 hr by UV spectrophotometer relative to control; assay type: toxicity, cell-based, Ovis aries, Erythrocyte; conditions: at 128 µg/mL, read-out: Activity
# [8] = molecular target: Insulin-like growth factor 1 receptor (Homo sapiens) (UniProt P08069); experiment: Inhibition of IGF-1R (unknown origin) at 10 uM
# [9] = system: L02; experiment: Induction in apoptosis in human L02 cells assessed as late apoptotic cells at 1 uM incubated for 24 hrs by Annexin V-FITC/Propidium Iodide staining based flow cytometry analysis (reference value: 0.36 %); assay type: toxicity, cell-based; conditions: l02, 24 h
# [10] = system: L02; experiment: Induction in apoptosis in human L02 cells assessed as necrotic cells at 2.5 uM incubated for 24 hrs by Annexin V-FITC/Propidium Iodide staining based flow cytometry analysis (reference value: 6.63 %); assay type: toxicity, cell-based; conditions: l02, 24 h
# [11] = system: NCI-H1975; experiment: Induction in apoptosis in human NCI-H1975 cells assessed as late apoptotic cells at 2.5 uM incubated for 24 hrs by Annexin V-FITC/Propidium Iodide staining based flow cytometry analysis (reference value: 4.46 %); assay type: functional
# [12] = system: A549; experiment: Antitumor activity against human A549 cells overexpressing c-MET xenografted in BALB/c nude mouse assessed as tumor growth inhibition at 60 mg/kg, IG qod measured for 24 days relative to control; assay type: functional; conditions: A549, po, 576 h, time 24 day, read-out: TGI
# [13] = molecular target: Fibroblast growth factor receptor 1 (Homo sapiens) (UniProt P11362); experiment: Inhibition of FGFR1 (unknown origin) at 10 uM
# [14] = Hepatotoxicity in KM mouse assessed as effect on alanine aminotransferase level at 100 mg/kg, IG qd administered for 7 days by automatic biochemical analyzer; assay type: toxicity, organism-based; conditions: in vivo, po, 168 h, time 7 day
# [15] = system: NCI-H1975; experiment: Induction in apoptosis in human NCI-H1975 cells assessed as viable cells at 2.5 uM incubated for 24 hrs by Annexin V-FITC/Propidium Iodide staining based flow cytometry analysis (reference value: 91.58 %); assay type: functional; conditions: read-out: Activity
# [16] = system: NCI-H1975; experiment: Induction in apoptosis in human NCI-H1975 cells assessed as early apoptotic cells at 2.5 uM incubated for 24 hrs by Annexin V-FITC/Propidium Iodide staining based flow cytometry analysis (reference value: 2.54 %); assay type: functional
# [17] = system: NCI-H1975; experiment: Inhibition of colony formation in human NCI-H1975 cells preincubated for 48 hrs followed by media replacement for every 2 days for 14 days by crystal violet staining based microscopic analysis; assay type: functional, cell-based; conditions: dose 0.25-2 µM
# [18] = system: L02; experiment: Induction in apoptosis in human L02 cells assessed as late apoptotic cells at 2.5 uM incubated for 24 hrs by Annexin V-FITC/Propidium Iodide staining based flow cytometry analysis (reference value: 0.36 %); assay type: toxicity, cell-based; conditions: l02, 24 h
# [19] = molecular target: Receptor-type tyrosine-protein kinase FLT3 (Homo sapiens) (UniProt P36888); experiment: Inhibition of FLT3 (unknown origin) at 10 uM
# Receptor-type tyrosine-protein kinase FLT3 (Homo sapiens), sequence (P36888 whole entry): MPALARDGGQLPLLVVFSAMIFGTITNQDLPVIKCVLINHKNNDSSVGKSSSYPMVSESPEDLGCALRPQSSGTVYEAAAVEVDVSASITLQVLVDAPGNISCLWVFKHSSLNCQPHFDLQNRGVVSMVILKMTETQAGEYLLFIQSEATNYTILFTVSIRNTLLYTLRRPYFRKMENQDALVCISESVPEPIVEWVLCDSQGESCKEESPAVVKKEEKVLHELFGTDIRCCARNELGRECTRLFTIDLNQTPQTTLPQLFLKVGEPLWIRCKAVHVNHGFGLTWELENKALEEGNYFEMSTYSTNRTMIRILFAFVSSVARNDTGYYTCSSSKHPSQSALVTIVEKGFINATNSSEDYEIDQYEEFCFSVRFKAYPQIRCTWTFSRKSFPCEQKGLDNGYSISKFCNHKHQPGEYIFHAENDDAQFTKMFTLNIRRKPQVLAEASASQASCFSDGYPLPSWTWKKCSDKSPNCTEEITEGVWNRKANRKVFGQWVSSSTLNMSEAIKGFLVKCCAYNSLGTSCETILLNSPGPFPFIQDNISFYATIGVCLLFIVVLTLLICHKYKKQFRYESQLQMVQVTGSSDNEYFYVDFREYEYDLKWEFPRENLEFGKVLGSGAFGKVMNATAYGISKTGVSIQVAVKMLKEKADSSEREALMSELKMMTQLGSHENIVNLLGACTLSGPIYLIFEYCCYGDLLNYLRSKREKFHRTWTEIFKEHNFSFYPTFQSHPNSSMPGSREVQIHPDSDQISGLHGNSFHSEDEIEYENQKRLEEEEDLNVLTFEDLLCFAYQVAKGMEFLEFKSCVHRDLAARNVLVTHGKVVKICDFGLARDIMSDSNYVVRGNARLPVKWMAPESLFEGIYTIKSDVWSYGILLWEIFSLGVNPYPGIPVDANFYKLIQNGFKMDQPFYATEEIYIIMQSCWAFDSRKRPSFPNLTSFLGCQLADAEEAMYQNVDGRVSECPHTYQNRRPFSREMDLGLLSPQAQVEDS
# [20] = system: A549; experiment: Induction in apoptosis in human A549 cells overexpressing c-MET assessed as necrotic cells at 1 uM incubated for 24 hrs by Annexin V-FITC/Propidium Iodide staining based flow cytometry analysis (reference value: 3.22 %); assay type: functional
# [21] = system: A549; experiment: Induction in apoptosis in human A549 cells overexpressing c-MET assessed as early apoptotic cells at 2.5 uM incubated for 24 hrs by Annexin V-FITC/Propidium Iodide staining based flow cytometry analysis (reference value: 7.27 %); assay type: functional
# [22] = system: A549; experiment: Inhibition of colony formation in human A549 cells overexpressing c-MET at 2 uM preincubated for 48 hrs followed by media replacement for every 2 days for 14 days by crystal violet staining based microscopic analysis relative to control; assay type: functional
# [23] = system: A549; experiment: Induction in apoptosis in human A549 cells overexpressing c-MET assessed as viable cells at 1 uM incubated for 24 hrs by Annexin V-FITC/Propidium Iodide staining based flow cytometry analysis (reference value: 81.92 %); assay type: functional; conditions: read-out: Activity
# [24] = Induction in apoptosis in human L02 cells assessed as viable cells at 1 uM incubated for 24 hrs by Annexin V-FITC/Propidium Iodide staining based flow cytometry analysis (reference value: 92.75 %); assay type: toxicity, cell-based; conditions: read-out: Activity
# [25] = system: NCI-H1975; experiment: Induction in apoptosis in human NCI-H1975 cells assessed as late apoptotic cells at 1 uM incubated for 24 hrs by Annexin V-FITC/Propidium Iodide staining based flow cytometry analysis (reference value: 4.46 %); assay type: functional
# [26] = Nephrotoxicity in KM mouse assessed as effect on creatinine level at 100 mg/kg, IG qd administered for 7 days by automatic biochemical analyzer; assay type: toxicity, organism-based; conditions: in vivo, po, 168 h, time 7 day
# [27] = system: L02; experiment: Induction in apoptosis in human L02 cells assessed as necrotic cells at 1 uM incubated for 24 hrs by Annexin V-FITC/Propidium Iodide staining based flow cytometry analysis (reference value: 6.63 %); assay type: toxicity, cell-based; conditions: l02, 24 h
# [28] = molecular target: Hepatocyte growth factor receptor (Homo sapiens, UniProt P08581); experiment: Potency index, ratio of foretinib IC50 to test compound IC50 for inhibition of N-terminal GST tagged human recombinant c-Met (956 to end residues) expressed in baculovirus infected Sf9 cells using Poly (4:1 Glu, Tyr) as substrate incubated for 60 mins in presence of ATP by ADP-Glo luminescent assay
# Hepatocyte growth factor receptor, sequence (P08581 whole entry): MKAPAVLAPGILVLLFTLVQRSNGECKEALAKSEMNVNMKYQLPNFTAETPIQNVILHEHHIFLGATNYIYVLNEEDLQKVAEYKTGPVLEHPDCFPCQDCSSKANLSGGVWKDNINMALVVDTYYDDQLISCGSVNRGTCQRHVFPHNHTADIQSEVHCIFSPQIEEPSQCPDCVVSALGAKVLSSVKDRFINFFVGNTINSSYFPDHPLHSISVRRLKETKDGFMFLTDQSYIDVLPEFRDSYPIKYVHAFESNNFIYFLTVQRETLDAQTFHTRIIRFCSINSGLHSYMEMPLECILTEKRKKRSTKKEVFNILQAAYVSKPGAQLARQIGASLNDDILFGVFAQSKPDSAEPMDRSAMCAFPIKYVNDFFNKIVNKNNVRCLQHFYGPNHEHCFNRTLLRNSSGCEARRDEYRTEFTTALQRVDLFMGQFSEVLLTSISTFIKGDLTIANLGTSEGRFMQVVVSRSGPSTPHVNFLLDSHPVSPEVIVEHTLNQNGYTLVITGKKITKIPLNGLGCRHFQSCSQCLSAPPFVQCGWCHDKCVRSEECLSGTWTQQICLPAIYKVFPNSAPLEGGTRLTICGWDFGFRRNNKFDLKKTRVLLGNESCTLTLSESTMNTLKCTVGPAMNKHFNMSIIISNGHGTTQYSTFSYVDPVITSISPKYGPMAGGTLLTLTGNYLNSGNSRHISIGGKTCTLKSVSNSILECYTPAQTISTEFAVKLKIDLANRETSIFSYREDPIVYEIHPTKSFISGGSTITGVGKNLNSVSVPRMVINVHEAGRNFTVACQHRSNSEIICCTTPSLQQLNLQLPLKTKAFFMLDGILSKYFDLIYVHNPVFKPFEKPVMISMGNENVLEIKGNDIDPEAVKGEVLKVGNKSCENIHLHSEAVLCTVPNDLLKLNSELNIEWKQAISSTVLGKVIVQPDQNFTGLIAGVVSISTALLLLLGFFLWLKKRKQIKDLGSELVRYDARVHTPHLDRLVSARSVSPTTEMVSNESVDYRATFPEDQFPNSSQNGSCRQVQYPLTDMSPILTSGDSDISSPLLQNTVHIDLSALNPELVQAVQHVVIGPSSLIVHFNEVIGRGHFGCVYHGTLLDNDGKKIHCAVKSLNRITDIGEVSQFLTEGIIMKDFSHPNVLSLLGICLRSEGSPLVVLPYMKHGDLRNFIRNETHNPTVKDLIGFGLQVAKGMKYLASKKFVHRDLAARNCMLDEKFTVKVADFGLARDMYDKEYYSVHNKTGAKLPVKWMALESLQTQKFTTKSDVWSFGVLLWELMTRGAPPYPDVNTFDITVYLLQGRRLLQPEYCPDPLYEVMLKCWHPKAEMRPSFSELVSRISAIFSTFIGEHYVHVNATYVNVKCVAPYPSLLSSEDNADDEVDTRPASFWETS
# [29] = molecular target: ALK tyrosine kinase receptor (Homo sapiens) (UniProt Q9UM73); experiment: Inhibition of ALK (unknown origin) at 10 uM
# [30] = system: NCI-H1975; experiment: Induction in apoptosis in human NCI-H1975 cells assessed as necrotic cells at 2.5 uM incubated for 24 hrs by Annexin V-FITC/Propidium Iodide staining based flow cytometry analysis (reference value: 1.42 %); assay type: functional
# [31] = molecular target: Mitogen-activated protein kinase 1 (Homo sapiens) (UniProt P28482); experiment: Inhibition of MAPK1 (unknown origin) at 10 uM
# [32] = system: NCI-H1975; experiment: Antiproliferative activity against human NCI-H1975 cells overexpressing c-Met and EGFR assessed as reduction in cell viability incubated for 72 hrs by MTT assay; assay type: functional, cell-based; conditions: NCI-H1975, 72 h
structure (smiles),measurement,setting,value
C=CC(=O)Nc1cc2c(Oc3ccc(NC(=O)n4c(=O)c(-c5ccccc5)c(C)n4C)cc3F)cccc2cc1OC,Activity,[1],Dose-Dependent Effect
same,Activity,[2],10.4%
same,IC50,[3],68.1 nM
same,Activity,[4],2.77%
same,Activity,[5],0.13%
same,inhibition,[6],inactive
same,"hemolysis at 2 h, 128 ug/ml",[7],5%
same,inhibition,[8],inactive
same,Activity,[9],0.28%
same,Activity,[10],4.53%
same,Activity,[11],8.17%
same,inhibition in vivo at 60 mg/kg,[12],55.3%
same,inhibition,[13],inactive
same,Activity,[14],Non-Toxic
same,viability at 2.5 µM,[15],85.5%
same,Activity,[16],3.87%
same,inhibition,[17],Dose-Dependent Effect
same,Activity,[18],0.34%
same,inhibition,[19],inactive
same,Activity,[20],6.61%
same,Activity,[21],10.44%
same,inhibition at 2 µM,[22],~100%
same,viability at 1 µM,[23],70.9%
same,"viability at 24 h, 1 µM",[24],91.9%
same,Activity,[25],7.27%
same,Activity,[26],Non-Toxic
same,Activity,[27],7.58%
same,Ratio IC50,[28],28
same,inhibition,[29],inactive
same,Activity,[30],2.49%
same,inhibition,[31],inactive
same,IC50,[32],1130 nM
